Test results reported in ChEMBL document CHEMBL5614374, “Novel carbazole-oxadiazole derivatives as anti-α-glucosidase and anti-α-amylase agents: Design, synthesis, molecular docking, and biological evaluation” (Eur J Med Chem, 2024).
pIC50: −log10 of the molar value. The source made the active and inactive calls. The calls are words filed in the database; no cut-off is given here.

What was measured:
Alpha-amylase = molecular target: T1, Alpha-amylase (Sus scrofa domesticus, UniProt Q7M328); test: Inhibition of hog pancreatic alpha-amylase using soluble starch as substrate preincubated for 10 mins followed by substrate addition and measured after 15 mins by absorbance based analysis
T1 sequence (Q7M328 whole entry): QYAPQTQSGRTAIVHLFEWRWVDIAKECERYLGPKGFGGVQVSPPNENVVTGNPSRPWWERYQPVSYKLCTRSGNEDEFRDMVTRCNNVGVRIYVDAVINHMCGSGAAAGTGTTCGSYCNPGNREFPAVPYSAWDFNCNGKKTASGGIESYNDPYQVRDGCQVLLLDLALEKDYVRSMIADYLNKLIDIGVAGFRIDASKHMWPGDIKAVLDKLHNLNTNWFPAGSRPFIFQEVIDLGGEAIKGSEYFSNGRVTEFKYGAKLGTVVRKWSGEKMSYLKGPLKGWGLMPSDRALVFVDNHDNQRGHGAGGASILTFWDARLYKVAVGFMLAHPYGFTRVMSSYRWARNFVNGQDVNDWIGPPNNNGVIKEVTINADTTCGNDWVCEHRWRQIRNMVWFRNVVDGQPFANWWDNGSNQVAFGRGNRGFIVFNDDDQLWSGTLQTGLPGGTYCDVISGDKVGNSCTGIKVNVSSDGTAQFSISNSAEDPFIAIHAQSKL

Alpha-glucosidase = Alpha-glucosidase (Saccharomyces cerevisiae S288c, UniProt P53341+P38158+P07265); test: Inhibition of Saccharomyces cerevisiae alpha-glucosidase using p-nitrophenyl-alpha-D-glucopyranoside as substrate preincubated for 0.25 hrs followed by substrate addition and measured after 0.5 hrs by spectrophotometric analysis; type: protein assay
Mus musculus [1] = test: Reduction in blood glucose concentration in male Kunming mouse assessed as decrease in AUC at 20 mg/kg, IG preadministered for 40 mins followed by saccharose addition and measured after 150 mins by sucrose loading test relative to control; type: functional; set-up: scale not given: the % may be the effect or the level left; details: time 190 min, 3.167 h
Mus musculus [2] = test: Reduction in blood glucose concentration in male Kunming mouse at 20 mg/kg, IG preadministered for 40 mins followed by saccharose addition and measured after 30 mins by sucrose loading test; type: functional, organism-based; details: time 70.0 min

Row | pIC50 (Alpha-amylase) | IC50 (Alpha-glucosidase) | SMILES | Activity (Mus musculus [1]) | Activity (Mus musculus [2])
1 | 4.06 | 22.22 µM | O=C(CSc1nnc(CCn2c3ccccc3c3ccccc32)o1)Nc1ccc([N+](=O)[O-])cc1 |  | 
2 | 3.92 | > 300 µM | Cc1ccc(NC(=O)CSc2nnc(CCn3c4ccccc4c4ccccc43)o2)c(C)c1 |  | 
3 | 4.03 | 92.05 µM | O=C(CSc1nnc(CCn2c3ccccc3c3ccccc32)o1)Nc1ccc(Cl)cc1Cl |  | 
4 | 3.90 | 80.64 µM | Cc1ccc(NC(=O)CSc2nnc(CCn3c4ccccc4c4ccccc43)o2)cc1 |  | 
5 |  |  | C[C@H]1O[C@H](O[C@H]2[C@H](O)[C@@H](O)[C@@H](O[C@H]3[C@H](O)[C@@H](O)C(O)O[C@@H]3CO)O[C@@H]2CO)[C@H](O)[C@@H](O)[C@@H]1N[C@H]1C=C(CO)[C@@H](O)[C@H](O)[C@H]1O (some centres undefined) [ACARBOSE] | 28.57% | Active
6 | 4.19 | 85.95 µM | COc1ccc(NC(=O)CSc2nnc(CCn3c4ccccc4c4ccccc43)o2)c([N+](=O)[O-])c1 |  | 
7 | < 3.70 | > 300 µM | Cc1ccccc1NC(=O)CSc1nnc(CCn2c3ccccc3c3ccccc32)o1 |  | 
